This test addresses Vanilloid receptor (Rattus norvegicus, UniProt Q9ERZ8+Q9WUD2+O35433). The test is described as follows: Inhibition of [Ca2+] uptake in dorsal root ganglion (DRG) neurons from neonatal Sprague-Dawley rat. In kind it is functional, tissue-based.

Structures are written as SMILES.

On to `CC(C)(C)c1ccc(CNC(=S)NCc2ccc(NS(C)(=O)=O)c(F)c2)cc1`, for which the IC50 (usually the concentration needed to halve the response being measured) turned out to be 0.037 µM. Under `Oc1cc2c(cc1O)CN(C(=S)NCCc1ccc(Cl)cc1)CCC2` [CAPSAZEPINE] stands 0.59 µM; under `CC(C)(C)c1ccc(C/N=C(\S)NCc2cccc(F)c2)cc1`, > 30 µM.
